# Experimental data reported in patent US20250313563A1, “GLYCOGEN SYNTHASE KINASE 3 INHIBITORS AND USES THEREOF” (The Broad Institute, Inc., priority 2022, published 2025).
# pIC50: −log10 of the molar value. Like-named read-outs stand apart in the source and are kept apart here.
# Columns and labels:
# [1] = target: GSK3α (GST-full length GSK3α) (Homo sapiens (Human), UniProt P49840); assay: GSK3α TR-FRET kinase assay; type: biochemical
# Method: (§1) TR-FRET Assay: The assay was performed in a white, 384 well, low volume, flat bottom plate (Grenier). After a 30 minute preincubation in assay buffer with the indicated concentration of compound, the kinase activity was initiated by the addition of the substrates. 1 nM GSK3α (GST-full length GSK3α [SignalChem G08-10G]) or 1 nM GSK3b (GST-full length GSK3b: [SignalChem G08-9G]) were then incubated at ambient temperature for 100 minutes in 10 μL of 50 mM Tris, pH 7.5, 20 mM MgCl2, 0.05 mM DTT, 100 μg/mL BSA and 1% DMSO, with 200 nM biotinylated peptide substrate (biotinylated and S645 phosphorylated glycogen synthase 631-650) and either 4 μM ATP (GSK3α, Table 16) or 2 μM ATP (GSK3b, Table 16) or 1 mM ATP (Table 17). The kinase activity was quenched with 2 μL of 250 mM EDTA. A 10 μL volume of 40 nM Strepavidin-d2, 2 nM Tb^2+-pSer641 antibody in TR-FRET Detection Buffer (Invitrogen) was then added. After 60 min at room temperature the plate was read on Envision plate reader using Ex: 340 nm, Em: 615 nm and […]. The normalized 665/615 Signal ratio versus log compound concentration was analyzed by XLFIT to yield IC50 values.
# [2] = target: GSK3b (GST-full length GSK3b) (Homo sapiens (Human), UniProt P49841); assay: GSK3b TR-FRET kinase assay; type: biochemical
# Method: as §1
# [3] = 1 nM GSK3α, 4 μM ATP, 30 minute preincubation, Table 16, read-out: GSK3-A TR-FRET BIOCHEMICAL (TR-FRET)
# [4] = 1 nM GSK3b, 2 μM ATP, 30 minute preincubation, Table 16, read-out: GSK3-B TR-FRET BIOCHEMICAL (TR-FRET)
# [5] = 1 nM GSK3α, 4 μM ATP, 30 minute preincubation, read-out: GSK3-A TR-FRET BIOCHEMICAL (TR-FRET), IC50
# [6] = 1 nM GSK3b, 2 μM ATP, 30 minute preincubation, read-out: GSK3-B TR-FRET BIOCHEMICAL (TR-FRET), IC50
# [7] = 1 nM GSK3α, 4 μM ATP, 30 minute preincubation, geometric mean, read-out: GSK3-A TR-FRET BIOCHEMICAL (TR-FRET), GMean, IC50
# [8] = read-out: GSK3-A (TR-FRET 1 mM ATP), GMean, IC50, 1 mM ATP, geometric mean
# [9] = 1 nM GSK3b, 2 μM ATP, 30 minute preincubation, geometric mean, read-out: GSK3-B TR-FRET BIOCHEMICAL (TR-FRET), GMean, IC50
# [10] = read-out: GSK3-B (TR-FRET 1 mM ATP), GMean, IC50, 1 mM ATP, geometric mean
# [11] = 1 nM GSK3α, 4 μM ATP, 30 minute preincubation, Table 16, read-out: GSK3-A TR-FRET BIOCHEMICAL (TR-FRET), IC50
# [12] = 1 nM GSK3b, 2 μM ATP, 30 minute preincubation, Table 16, read-out: GSK3-B TR-FRET BIOCHEMICAL (TR-FRET), IC50
# Sequence of GSK3α (GST-full length GSK3α) (P49840 whole entry): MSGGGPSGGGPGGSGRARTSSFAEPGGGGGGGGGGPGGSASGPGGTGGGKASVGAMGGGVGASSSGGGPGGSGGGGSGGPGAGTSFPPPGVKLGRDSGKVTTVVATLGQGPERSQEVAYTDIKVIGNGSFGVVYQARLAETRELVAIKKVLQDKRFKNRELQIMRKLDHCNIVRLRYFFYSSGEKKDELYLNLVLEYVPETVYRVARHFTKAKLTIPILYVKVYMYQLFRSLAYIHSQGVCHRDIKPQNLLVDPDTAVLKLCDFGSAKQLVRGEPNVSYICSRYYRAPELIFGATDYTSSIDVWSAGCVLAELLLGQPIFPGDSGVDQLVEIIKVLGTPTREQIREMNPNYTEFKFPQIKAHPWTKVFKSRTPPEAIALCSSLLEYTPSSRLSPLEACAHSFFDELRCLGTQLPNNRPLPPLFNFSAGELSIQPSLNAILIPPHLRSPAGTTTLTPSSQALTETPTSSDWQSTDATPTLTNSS
# Sequence of GSK3b (GST-full length GSK3b) (P49841 whole entry): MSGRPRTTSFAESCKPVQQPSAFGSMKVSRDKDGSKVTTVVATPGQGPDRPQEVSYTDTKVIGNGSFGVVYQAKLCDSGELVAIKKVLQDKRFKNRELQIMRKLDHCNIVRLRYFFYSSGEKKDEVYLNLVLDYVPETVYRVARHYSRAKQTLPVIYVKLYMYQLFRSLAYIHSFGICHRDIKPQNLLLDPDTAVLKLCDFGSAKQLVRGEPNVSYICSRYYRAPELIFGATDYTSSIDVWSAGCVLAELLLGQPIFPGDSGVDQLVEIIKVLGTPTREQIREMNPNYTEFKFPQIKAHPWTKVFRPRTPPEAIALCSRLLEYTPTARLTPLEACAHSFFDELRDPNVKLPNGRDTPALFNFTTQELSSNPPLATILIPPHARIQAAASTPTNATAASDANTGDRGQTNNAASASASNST
structure (smiles),measurement,setting,value
CC1(C)CC(=O)C2=C(C1)Nc1n[nH]cc1C21CN(S(=O)(=O)c2ccc(F)cc2)C1 [Compound 917144],pIC50,[1]; [3],≥ 7.00
same,pIC50,[2]; [4],≥ 7.00
CC1(C)CC(=O)C2=C(C1)Nc1n[nH]cc1C21CCN(S(=O)(=O)c2cn3c(n2)CCCC3)CC1 [Compound 947472],pIC50,[1]; [3],≥ 7.00
same,pIC50,[2]; [4],6.00 to 7.00
CCC1(c2cccc(C(C)c3ncccn3)c2)C2=C(CC(C)(C)CC2=O)Nc2n[nH]cc21 (centres unmarked) [Compound 948057],pIC50,[1]; [3],6.00 to 7.00
same,pIC50,[2]; [4],5.30 to 6.00
CC(C)C(=O)N1CC2(C1)CC1(CO2)C2=C(CC(C)(C)CC2=O)Nc2n[nH]cc21 (centres unmarked) [Compound 947304],pIC50,[1]; [5],≥ 7.00
same,pIC50,[2]; [6],6.00 to 7.00
CCC1(c2cccc(-c3ccncc3)c2)C2=C(CC(C)(C)CC2=O)Nc2n[nH]cc21 (centres unmarked) [Compound 801413],pIC50,[1]; [7],≥ 7.00
same,pIC50,[1]; [8],6.00 to 7.00
same,pIC50,[2]; [9],≥ 7.00
same,pIC50,[2]; [10],5.30 to 6.00
CCC1(c2cccc(C(F)(F)F)c2)C2=C(CC(C)(C)C2=O)Nc2n[nH]cc21 (centres unmarked) [Compound 950273],pIC50,[1]; [11],< 5.30
same,pIC50,[2]; [12],< 5.30
CCC1(c2cccc(-c3cn(C)nc3C)c2)C2=C(CC(C)(C)NC2=O)Nc2n[nH]c(F)c21 (centres unmarked) [Compound 948301],pIC50,[1]; [7],≥ 7.00
same,pIC50,[2]; [9],≥ 7.00
CC[C@]1(c2cccc(C(F)(F)F)c2)C2=C(CCN(c3ccsc3)C2=O)Nc2n[nH]cc21 [Compound 952636],pIC50,[1]; [11],< 5.30
same,pIC50,[2]; [12],< 5.30
CC(=O)N1CC[C@@]2(C1)C[C@]1(CO2)C2=C(CC(C)(C)CC2=O)Nc2n[nH]cc21 [Compound 948320],pIC50,[1]; [5],6.00 to 7.00
same,pIC50,[2]; [6],5.30 to 6.00
CCC1(c2cccc(-c3cc(C)ncc3C)c2)C2=C(CC(C)(C)CC2=O)Nc2n[nH]c(C(F)(F)F)c21 (centres unmarked) [Compound 947363],pIC50,[1]; [3],≥ 7.00
same,pIC50,[1]; [8],≥ 7.00
same,pIC50,[2]; [4],≥ 7.00
same,pIC50,[2]; [10],6.00 to 7.00
Cc1cnc2c(S(=O)(=O)N3CCC4(CC3)C3=C(CC(C)(C)CC3=O)Nc3n[nH]cc34)cccc2c1 [Compound 947614],pIC50,[1]; [5],≥ 7.00
same,pIC50,[2]; [6],≥ 7.00
CCC1(c2cccc(N3CCOc4ncccc43)c2)C2=C(CC(C)(C)CC2=O)Nc2n[nH]cc21 (centres unmarked) [Compound 918279],pIC50,[1]; [11],≥ 7.00
same,pIC50,[2]; [12],≥ 7.00
CC[C@]1(c2cccc(-c3ccncc3F)c2)C2=C(CC(C)(C)CC2=O)Nc2n[nH]cc21 [Compound 943519],pIC50,[1]; [3],6.00 to 7.00
same,pIC50,[2]; [4],5.30 to 6.00
CC[C@]1(c2cccc(N(c3cccnc3)C(C)C)c2)C2=C(CC(C)(C)CC2=O)Nc2n[nH]cc21 [Compound 917087],pIC50,[1]; [11],6.00 to 7.00
same,pIC50,[2]; [12],5.30 to 6.00
CCC1(c2cccc(N(C)c3ccc(OC)nc3)c2)C2=C(CC(C)(C)CC2=O)Nc2n[nH]cc21 (centres unmarked) [Compound 913252],pIC50,[1]; [11],6.00 to 7.00
same,pIC50,[2]; [12],6.00 to 7.00
CC1(C)CC(=O)C2=C(C1)Nc1n[nH]cc1C21CCN(S(=O)(=O)c2ccccc2C(F)(F)F)CC1 [Compound 945667],pIC50,[1]; [3],≥ 7.00
same,pIC50,[2]; [4],6.00 to 7.00
CCC1(c2cccc(-c3ccncc3C)c2)C2=C(CC(C)(C)NC2=O)Nc2n[nH]cc21 (centres unmarked) [Compound 945461],pIC50,[1]; [5],≥ 7.00
same,pIC50,[2]; [6],≥ 7.00
CCC1(c2cccc(N(C)c3ccnc(C)c3)c2)C2=C(CC(C)(C)CC2=O)Nc2n[nH]cc21 (centres unmarked) [Compound 917149],pIC50,[1]; [11],6.00 to 7.00
same,pIC50,[2]; [12],5.30 to 6.00
CC1(C)CC(=O)C2=C(C1)Nc1n[nH]cc1C2(C)c1cc(Cl)cc(Cl)c1 (centres unmarked) [Compound 789337],pIC50,[1]; [7],6.00 to 7.00
same,pIC50,[2]; [9],5.30 to 6.00
CCC1(c2cccc(-c3cnn(CCOC)c3)c2)C2=C(CC(C)(C)NC2=O)Nc2n[nH]cc21 (centres unmarked) [Compound 949114],pIC50,[1]; [7],5.30 to 6.00
same,pIC50,[2]; [9],< 5.30
CCC1(c2cccc(-c3ccnc(C)c3)c2)C2=C(CC(C)(C)NC2=O)Nc2n[nH]c(Cl)c21 (centres unmarked) [Compound 948998],pIC50,[1]; [7],≥ 7.00
same,pIC50,[1]; [8],6.00 to 7.00
same,pIC50,[2]; [9],≥ 7.00
same,pIC50,[2]; [10],5.30 to 6.00
CCC1(c2cccc(Br)c2)C2=C(CC(C)(C)C(F)C2=O)Nc2n[nH]cc21 (centres unmarked) [Compound 835315],pIC50,[1]; [7],≥ 7.00
same,pIC50,[1]; [8],6.00 to 7.00
same,pIC50,[2]; [9],≥ 7.00
same,pIC50,[2]; [10],5.30 to 6.00
CC(C)N1CC2(C1)C1=C(CC(C)(C)CC1=O)Nc1n[nH]cc12 [Compound 932650],pIC50,[1]; [11],< 5.30
same,pIC50,[2]; [12],< 5.30
CCC1(c2cccc(-c3ccnn3C)c2)C2=C(CC(C)(C)CC2=O)Nc2n[nH]c(C)c21 (centres unmarked) [Compound 883992],pIC50,[1]; [11],≥ 7.00
same,pIC50,[2]; [12],≥ 7.00
CCC1(c2cccc(S(=O)(=O)C3CC3)c2)C2=C(CC(C)(C)NC2=O)Nc2n[nH]c(C(F)(F)F)c21 (centres unmarked) [Compound 948776],pIC50,[1]; [7],6.00 to 7.00
same,pIC50,[2]; [9],6.00 to 7.00
C[C@@H]1CCC[C@@]2(C1)C1=C(CC(C)(C)CC1=O)Nc1n[nH]cc12 [Compound 874537],pIC50,[1]; [3],6.00 to 7.00
same,pIC50,[2]; [4],6.00 to 7.00
CC1(C)CC(=O)C2=C(C1)Nc1n[nH]cc1[C@@]2(C)c1cccc(-c2ccccc2)c1 [Compound 801366],pIC50,[1]; [7],< 5.30
same,pIC50,[2]; [9],< 5.30
CC[C@@]1(c2cccc(-c3cnn(C)c3C#N)c2)C2=C(CC(C)(C)NC2=O)Nc2n[nH]cc21 [Compound 948814],pIC50,[1]; [7],< 5.30
same,pIC50,[2]; [9],< 5.30
CC[C@]1(c2cccc(-c3cc(C)nn3C)c2)C2=C(CC(C)(C)NC2=O)Nc2n[nH]cc21 [Compound 943967],pIC50,[1]; [5],< 5.30
same,pIC50,[2]; [6],< 5.30
CC[C@@]1(c2cccc(C(F)(F)F)c2)C2=C(C[C@@]3(CCNC3=O)CC2=O)Nc2n[nH]cc21 [Compound 950333],pIC50,[1]; [3],≥ 7.00
same,pIC50,[2]; [4],6.00 to 7.00
CCC1(c2cccc(N(C)c3ccncc3)c2)C2=C(CC(C)(C)CC2=O)Nc2n[nH]cc21 (centres unmarked) [Compound 853910],pIC50,[1]; [7],6.00 to 7.00
same,pIC50,[2]; [9],5.30 to 6.00
CC1(C)CC(=O)C2=C(C1)Nc1n[nH]cc1C21CCN(S(=O)(=O)c2cnc3cccnn23)CC1 [Compound 948120],pIC50,[1]; [3],≥ 7.00
same,pIC50,"[1]; GSK3-A (TR-FRET 1 mM ATP), GMean, IC50, 1 mM ATP, geometric mean",6.00 to 7.00
same,pIC50,[2]; [4],≥ 7.00
same,pIC50,"[2]; GSK3-B (TR-FRET 1 mM ATP), GMean, IC50, 1 mM ATP, geometric mean",5.30 to 6.00
CC[C@@]1(c2cccc(S(=O)(=O)C(C)C)c2)C2=C(CC(C)(C)NC2=O)Nc2n[nH]c(C(F)(F)F)c21 [Compound 948423],pIC50,[1]; [7],≥ 7.00
same,pIC50,[2]; [9],6.00 to 7.00
CC[C@]1(c2cccc(C(C)C)c2)C2=C(CC(C)(C)NC2=O)Nc2n[nH]c(C)c21 [Compound 949649],pIC50,[1]; [11],≥ 7.00
same,pIC50,[1]; [8],6.00 to 7.00
same,pIC50,[2]; [12],≥ 7.00
same,pIC50,[2]; [10],5.30 to 6.00
CC(=O)N1CC2(C1)C[C@@]1(CO2)C2=C(CC(C)(C)CC2=O)Nc2n[nH]cc21 [Compound 926872],pIC50,[1]; [5],6.00 to 7.00
same,pIC50,[2]; [6],6.00 to 7.00
CCn1cc(N2CCC3=C(C2=O)[C@](CC)(c2cccc(C(F)(F)F)c2)c2c[nH]nc2N3)cn1 [Compound 949868],pIC50,[1]; [11],6.00 to 7.00
same,pIC50,[2]; [12],< 5.30
CCC1(c2cccc(-c3cnn(C)c3C#N)c2)C2=C(CC(C)(C)NC2=O)Nc2n[nH]cc21 (centres unmarked) [Compound 948827],pIC50,[1]; [7],≥ 7.00
same,pIC50,[2]; [9],6.00 to 7.00
